Measured values from patent publication US6426068B1, “Therapeutic uses of heterologous superoxide dismutase (HSD), and method for selecting said HSD” (Fractales Biotech, priority 1998, dated 2002).

B1: yeast Cu—SOD: yeast Cu—SOD (protein, UniProt P00445 2-154, looked up)
Superoxide dismutase [Cu-Zn]: VQAVAVLKGDAGVSGVVKFEQASESEPTTVSYEIAGNSPNAERGFHIHEFGDATNGCVSAGPHFNPFKKTHGAPTDEVRHVGDMGNVKTDENGVAKGSFKDSLIKLIGPTSVVGRSVVIHAGQDDLGKGDTEESLKTGNAGPRPACGVIGLTN
B2: Mn—SOD of E. coli: manganese SOD of E. coli (protein, UniProt P00448 2-206, looked up)
Superoxide dismutase [Mn]: SYTLPSLPYAYDALEPHFDKQTMEIHHTKHHQTYVNNANAALESLPEFANLPVEELITKLDQLPADKKTVLRNNAGGHANHSLFWKGLKKGTTLQGDLKAAIERDFGSVDNFKAEFEKAAASRFGSGWAWLVLKGDKLAVVSTANQDSPLMGEAISGASGFPIMGLDVWEHAYYLKFQNRRPDYIKEFWNVVNWDEAAARFAAKK

Columns and labels:
[1] = test system: human macrophages; assay: TNF-α production by human macrophages with β-amyloid or MPTP; settings: 10 μg/ml, 48 hours, FIGS. 12 and 13
Experimental: The CLCs are isolated from 23 healthy individuals, under the same conditions as those set out above. The adherent cell populations are obtained by incubating the CLCs (1×10^7 cells/ml) either in Petri dishes (Nunc) or in 6-well culture plates (Nunc) for 30 min at 37° C. in an RPMI 1640 medium supplemented with foetal calf serum at 10% (v/v) . The monocytes are then recovered by scraping the plates after adding a cold solution of PBS containing 1 mM EDTA. Cell preparations which comprise more than 85% of viable macrophages are estimated by Trypan blue exclusion and staining with a nonspecific esterase.
The macrophages are cultured at a final concentration of 2×10^6 cells/ml in 12- or 24-well plastic culture plates (Nunc) and in an Iscove medium supplemented with 100 U/ml of penicillin, 100 μg/ml of streptomycin and 5% of foetal calf serum.
The cells are incubated for 48 hours at 37° C. in a humid atmosphere (100%) containing 95% air and 5% CO2, in the presence of absence of 10 μg/ml of β-amyloid or MPTP.
The cell supernatants are recovered for measuring the TNF and the nitrites, while apoptosis is evaluated directly on the cells.

[2] = test system: human macrophages; assay: Apoptosis of human macrophages with β-amyloid or MPTP; type: cell-based; settings: 10 μg/ml, 48 hours, FIGS. 12 and 13
[3] = test system: glutathione peroxidase (GPx), Mn—SOD, inducible NO synthase (iNOs); assay: Immuno-redox activity of HSD1/anti-HSD1 immune complexes in U937 and U1 cells; settings: noninfected U937 and U1 cells; HSD1 10 μg/ml (30 U/ml), anti-HSD1 antibodies 10 μg/ml; FIG. 16
Experimental: U937 cells which are chronically infected with HIV-1 (U1 cells), and which have a low p24 production level (<250 pg/10^5 cells/ml in a 3-day supernatant) are cultured in an RPMI medium supplemented with L-glutamine, penicillin, streptomycin and foetal calf serum at 10% (Gibco products). They are used for the production of p24, and to evaluate apoptosis.

[4] = test system: Mn—SOD; assay: Endogenous SOD (dismutase) activity of U937 cells after exogenous SOD; type: cell-based, human; settings: SOD 30 U/ml, FIG. 2
Experimental: U937 cells, untreated or treated with HIV-Tat protein, in the presence or absence of the abovementioned SODs, are lysed in a detergent buffer comprising: 10 mM Tris-HCl pH 7.4, 0.1% of SDS, 1% of Nonidet P-40, 10 μg/ml of leupeptin, 100 μg/ml of PMSF and 2 μg/ml of aprotinin, by heating at 85° C. for 5 min. The lysate is then briefly sonicated (3×30 sec).
The total superoxide dismutase activity is measured on the sonicated lysates obtained as described above by its capacity to inhibit the reduction of ferrocytochrome c by the superoxide radicals produced by the xanthin oxidase/xanthine system (McCord. J. M., 1969, J. Biol. Chem. 244, 6049). One unit of superoxide dismutase is defined as the amount which inhibits 50% of the reduction of cytochrome c at room temperature and at pH 7.8.

[5] = test system: glutathione peroxidase (Gpx); assay: Glutathione peroxidase transcription in U937 cells (RT-PCR); settings: FIG. 3
Experimental: The human promonocytic leukaemia cell line U937 is cultured at a final concentration of 2×10^5 cells/ml in an Iscove medium enriched with 100 U/ml of penicillin, 100 μg/ml of streptomycin and 5% of foetal calf serum, in the presence (activated) or absence (control) of 10 μg/ml of HIV-Tat protein.
After stimulation and treatment with various sources and concentrations of SOD, the U937 cells are harvested in a phosphate-buffered cold physiological saline, and counted. The total RNA is extracted by standard techniques (Chomczynski. P., 1987, Anal. Biochem. 162, 156), in 1 ml of TRIzol reagent (Life Technologies ≠15596), according to the manufacturer's instructions. After its extraction, the RNA is precipitated with isopropyl alcohol, and the pellets are washed in 70% ethanol and air dried. The dried pellets are resuspended in 50 μl of 0.5 mM EDTA, pH 8, and quantified by spectrophotometry. […]
The amplification program comprises: five cycles comprising 60 sec. at 92° C., 60 sec. at 58° C. and 60 sec. at 74° C., followed by 25 cycles comprising 30 sec. at 92° C., 60 sec. at 60° C. and 60 sec. at 74° C., and to finish, the temperature is kept at 74° C. for another 3 minutes. Positive PCR amplifications are then determined by an electrophoresis on 1.2% agarose gel in 0.5×TAE buffer. […]

[6] = test system: Mn—SOD; assay: Endogenous SOD expression in U937 cells (SDS-PAGE / immunoblot); type: cell-based, human; settings: HIV-Tat activated U937 cells (10 μg/ml Tat); SOD 30 U/ml, 24 hours; FIG. 1
[7] = test system: inflammation induced with adriamycin; assay: Rat model of inflammation induced with adriamycin; type: in vivo
[8] = test system: inflammation induced with carrageenans; assay: Rat model of inflammation induced with carrageenans; type: in vivo

Row | Molecule | anti-inflammatory activity (rank order of SODs) [7] | anti-inflammatory activity (rank order of SODs) [8] | other results
1 | CN1CC=C(c2ccccc2)CC1 [MPTP] |  |  | production of TNF-α by macrophages [1]: stimulate the production of TNF-α; death of macrophages by apoptosis [2]: induce their death by apoptosis
2 | HSD1: bovine SOD (heterologous), Sigma, St Louis, Mo. |  |  | expression of glutathione peroxidase (GPx), Mn—SOD and inducible NO synthase (iNOs) [3]: stimulate the expression; lifting of HIV-Tat protein-induced inhibition of Mn—SOD expression (endogenous SOD activity) [4]: can be lifted
3 | HuSOD: recombinant human Cu/Zn SOD, homologous comparator |  |  | Gpx transcription [5]: does not enable it; Mn—SOD expression [6]: remains undetectable; lifting of HIV-Tat protein-induced inhibition of Mn—SOD expression (endogenous SOD activity) [4]: not lifted
4 | bovine Cu—SOD: Cu/Zn—SOD of bovine origin | bovine Cu—SOD>Mn—SOD of E. coli | Mn—SOD of E. coli>bovine Cu—SOD>human Cu—SOD>yeast Cu—SOD>plant Cu—SOD | 
5 | human Cu—SOD: human Cu—SOD |  | Mn—SOD of E. coli>bovine Cu—SOD>human Cu—SOD>yeast Cu—SOD>plant Cu—SOD | 
6 | rat Cu—SOD: rat (homologous) Cu—SOD | totally inactive | significant pro-inflammatory activity | 
7 | β-amyloid |  |  | production of TNF-α by macrophages [1]: stimulate the production of TNF-α; death of macrophages by apoptosis [2]: induce their death by apoptosis
8 | B1 | generates a pro-inflammatory response | Mn—SOD of E. coli>bovine Cu—SOD>human Cu—SOD>yeast Cu—SOD>plant Cu—SOD | 
9 | B2 | bovine Cu—SOD>Mn—SOD of E. coli | Mn—SOD of E. coli>bovine Cu—SOD>human Cu—SOD>yeast Cu—SOD>plant Cu—SOD | 
